In PubChem BioAssay AID1963848 (Molecular Pharmacology Branch, DTP, NCI, 2024):
pIC50: −log10 of the molar value.

System: 379773-124-R-J2-PDC spheroid viability
Assay: Anticancer human tumor 379773-124-R-J2-PDC patient-derived endometrial carcinoma cell line growth inhibition [POLQ]
Settings: spheroids with HUVEC and MSC; for pIC50: curve of first compound; for viability, T/C: stronger effect = lower value
Summary of the method: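 Patient-derived tumour cells were co-cultured with HUVEC and mesenchymal stem cells as multicellular spheroids at 37 °C. They were treated with POLQ inhibitors (novobiocin, ART-558, RP6685) alone or combined with other agents. Top concentrations were at or near clinical Cmax (otherwise 10 microM; SN-38 at 1 microM), decreasing in half-log steps.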

[1] = second compound 0.0316 µM, first compound 0.0316 µM
[2] = second compound 0.0316 µM, first compound 0.1 µM
[3] = second compound 0.0316 µM, first compound 0.316 µM
[4] = second compound 0.0316 µM, first compound 1 µM
[5] = second compound 0.0316 µM, first compound 3.16 µM
[6] = second compound 0.0316 µM, first compound 10 µM
[7] = second compound 0.1 µM, first compound 0.0316 µM
[8] = second compound 0.1 µM, first compound 0.1 µM
[9] = second compound 0.1 µM, first compound 0.316 µM
[10] = second compound 0.1 µM, first compound 1 µM
[11] = second compound 0.1 µM, first compound 3.16 µM
[12] = second compound 0.1 µM, first compound 10 µM
[13] = second compound 0.316 µM, first compound 0.0316 µM
[14] = second compound 0.316 µM, first compound 0.1 µM
[15] = second compound 0.316 µM, first compound 0.316 µM
[16] = second compound 0.316 µM, first compound 1 µM
[17] = second compound 0.316 µM, first compound 3.16 µM
[18] = second compound 0.316 µM, first compound 10 µM
[19] = second compound 1 µM, first compound 0.0316 µM
[20] = second compound 1 µM, first compound 0.1 µM
[21] = second compound 1 µM, first compound 0.316 µM
[22] = second compound 1 µM, first compound 1 µM
[23] = second compound 1 µM, first compound 3.16 µM
[24] = second compound 1 µM, first compound 10 µM
[25] = second compound 3.16 µM, first compound 0.0316 µM
[26] = second compound 3.16 µM, first compound 0.1 µM
[27] = second compound 3.16 µM, first compound 0.316 µM
[28] = second compound 3.16 µM, first compound 1 µM
[29] = second compound 3.16 µM, first compound 3.16 µM
[30] = second compound 3.16 µM, first compound 10 µM
[31] = second compound 10 µM, first compound 0.0316 µM
[32] = second compound 10 µM, first compound 0.1 µM
[33] = second compound 10 µM, first compound 0.316 µM
[34] = second compound 10 µM, first compound 1 µM
[35] = second compound 10 µM, first compound 3.16 µM
[36] = second compound 10 µM, first compound 10 µM
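Note: spheroids exposed to drugs for seven days before readout.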
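Throughout, for viability, T/C: percent viability relative to DMSO vehicle control taken as 100%.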

COc1cccc2c1C(=O)c1c(O)c3c(c(O)c1C2=O)CC(O)(C(=O)CO)CC3OC1CC(N)C(O)C(C)O1 (stereo unspecified) + COC1C(OC(N)=O)C(O)C(Oc2ccc3c(O)c(NC(=O)c4ccc(O)c(CC=C(C)C)c4)c(=O)oc3c2C)OC1(C)C
pIC50 (second compound 0.0316 µM): 7.25
pIC50 (second compound 0.1 µM): 7.19
pIC50 (second compound 0.316 µM): 7.18
pIC50 (second compound 1 µM): 7.21
pIC50 (second compound 3.16 µM): 7.25
pIC50 (second compound 10 µM): 7.23
viability, T/C [1]: 77.5%
viability, T/C [2]: 23.3%
viability, T/C [3]: 6.61%
viability, T/C [4]: 6.45%
viability, T/C [5]: 0.84%
viability, T/C [6]: 0.73%
viability, T/C [7]: 85.7%
viability, T/C [8]: 27.9%
viability, T/C [9]: 6.63%
viability, T/C [10]: 6.52%
viability, T/C [11]: 1%
viability, T/C [12]: 0.1%
viability, T/C [13]: 83.4%
viability, T/C [14]: 31.3%
viability, T/C [15]: 8.56%
viability, T/C [16]: 7.02%
viability, T/C [17]: 1.52%
viability, T/C [18]: 1.06%
viability, T/C [19]: 82.8%
viability, T/C [20]: 26.2%
viability, T/C [21]: 8.01%
viability, T/C [22]: 5.55%
viability, T/C [23]: 1.26%
viability, T/C [24]: 0.1%
viability, T/C [25]: 75.7%
viability, T/C [26]: 23.2%
viability, T/C [27]: 6.39%
viability, T/C [28]: 6.03%
viability, T/C [29]: 1.65%
viability, T/C [30]: 0.73%
viability, T/C [31]: 84%
viability, T/C [32]: 19.4%
viability, T/C [33]: 7.68%
viability, T/C [34]: 5.68%
viability, T/C [35]: 0.98%
viability, T/C [36]: 0.19%

CCc1cc2c(N3CCc4c(cc(Cn5ccnc5)cc4-c4cn(C)nc4C(F)(F)F)C3=O)cc(C)nc2c(OC)n1 + Cc1cccc(N(C)C(=O)C2C(O)CCN2c2nc(C)cc(C(F)(F)F)c2C#N)c1
pIC50 (second compound 0.0316 µM): < 5.00
pIC50 (second compound 0.1 µM): < 5.00
pIC50 (second compound 0.316 µM): < 5.00
pIC50 (second compound 1 µM): 5.05
pIC50 (second compound 3.16 µM): 5.17
pIC50 (second compound 10 µM): 5.71
viability, T/C [1]: 77.2%
viability, T/C [2]: 80%
viability, T/C [3]: 61.9%
viability, T/C [4]: 62.4%
viability, T/C [5]: 64%
viability, T/C [6]: 48.9%
viability, T/C [7]: 92.7%
viability, T/C [8]: 69.5%
viability, T/C [9]: 56.1%
viability, T/C [10]: 58.4%
viability, T/C [11]: 55.4%
viability, T/C [12]: 46.9%
viability, T/C [13]: 78.9%
viability, T/C [14]: 72.9%
viability, T/C [15]: 67.8%
viability, T/C [16]: 59.4%
viability, T/C [17]: 60.8%
viability, T/C [18]: 51.4%
viability, T/C [19]: 77.3%
viability, T/C [20]: 68.2%
viability, T/C [21]: 68.1%
viability, T/C [22]: 59%
viability, T/C [23]: 62.4%
viability, T/C [24]: 46.6%
viability, T/C [25]: 76.4%
viability, T/C [26]: 73.6%
viability, T/C [27]: 61%
viability, T/C [28]: 53.9%
viability, T/C [29]: 51.9%
viability, T/C [30]: 48.1%
viability, T/C [31]: 70.7%
viability, T/C [32]: 64%
viability, T/C [33]: 61.5%
viability, T/C [34]: 49.2%
viability, T/C [35]: 50.9%
viability, T/C [36]: 41.2%

CCc1cc2c(N3CCc4c(cc(Cn5ccnc5)cc4-c4cn(C)nc4C(F)(F)F)C3=O)ccnc2c(OC)n1 + Cc1cccc(N(C)C(=O)C2C(O)CCN2c2nc(C)cc(C(F)(F)F)c2C#N)c1
pIC50 (second compound 0.0316 µM): < 5.00
pIC50 (second compound 0.1 µM): < 5.00
pIC50 (second compound 0.316 µM): < 5.00
pIC50 (second compound 1 µM): < 5.00
pIC50 (second compound 3.16 µM): < 5.00
pIC50 (second compound 10 µM): 5.43
viability, T/C [1]: 76.1%
viability, T/C [2]: 68.8%
viability, T/C [3]: 73%
viability, T/C [4]: 63.2%
viability, T/C [5]: 59.1%
viability, T/C [6]: 54.5%
viability, T/C [7]: 81.9%
viability, T/C [8]: 71.1%
viability, T/C [9]: 64.3%
viability, T/C [10]: 69.6%
viability, T/C [11]: 55.2%
viability, T/C [12]: 50%
viability, T/C [13]: 71.9%
viability, T/C [14]: 85.3%
viability, T/C [15]: 70.2%
viability, T/C [16]: 64.8%
viability, T/C [17]: 55.5%
viability, T/C [18]: 53%
viability, T/C [19]: 83.6%
viability, T/C [20]: 68.9%
viability, T/C [21]: 65%
viability, T/C [22]: 63.7%
viability, T/C [23]: 55.9%
viability, T/C [24]: 50.2%
viability, T/C [25]: 73.5%
viability, T/C [26]: 80.8%
viability, T/C [27]: 60.9%
viability, T/C [28]: 65.2%
viability, T/C [29]: 58.8%
viability, T/C [30]: 55.7%
viability, T/C [31]: 69.6%
viability, T/C [32]: 68.2%
viability, T/C [33]: 62%
viability, T/C [34]: 57.9%
viability, T/C [35]: 50.1%
viability, T/C [36]: 44.2%
